Test results from patent publication US8324216B2, “Substituted piperazines” (Chemocentryx, Inc., priority 2002, dated 2012).

Key:
[1] = tested on: LPS induced synovial inflammation in rabbit knee; experiment: Rabbit model of destructive joint inflammation (intra-articular LPS); type: in vivo, female New Zealand rabbits; conditions: for synovium inflammation score: 16 h, score 1 minimal, 2 mild, 3 moderate, 4 moderate-marked, vehicle 3
Source text: This study design mimics the destructive joint inflammation seen in arthritis. Intra-articular injection of LPS causes an acute inflammatory response characterized by the release of cytokines and chemokines, many of which have been identified in rheumatoid arthritic joints. Marked increases in leukocytes occur in synovial fluid and in synovium in response to elevation of these chemotactic mediators. Selective antagonists of chemokine receptors have shown efficacy in this model (see Podolin, et al., J. Immunol. 169(11):6435-6444 (2002)).
Sixteen hours after the LPS injection, knees were lavaged and cells counts performed. Beneficial effects of treatment were determined by histopathologic evaluation of synovial inflammation. The following inflammation scores were used for the histopathologic evaluation: 1—minimal, 2—mild, 3—moderate, 4—moderate-marked.

[2] = tested on: arthritis induced clinical ankle swelling; experiment: Rat model of collagen induced arthritis (17 day developing type II collagen arthritis); type: in vivo, female Lewis rats; conditions: 25 mg/kg sub-cutaneous daily day 0 till day 17
Experimental: A 17 day developing type II collagen arthritis study was conducted to evaluate the effects of compound 1.028 on arthritis induced clinical ankle swelling. Rat collagen arthritis is an experimental model of polyarthritis that has been widely used for preclinical testing of numerous anti-arthritic agents (see Trentham, et al., J. Exp. Med. 146(3):857-868 (1977), Bendele, et al., Toxicologic Pathol. 27:134-142 (1999), Bendele, et al., Arthritis Rheum. 42:498-506 (1999)). The hallmarks of this model are reliable onset and progression of robust, easily measurable polyarticular inflammation, marked cartilage destruction in association with pannus formation and mild to moderate bone resorption and periosteal bone proliferation. Female Lewis rats (approximately 0.2 kilograms) were anesthetized with isoflurane and injected with Freund's Incomplete Adjuvant containing 2 mg/mL bovine type II collagen at the base of the tail and two sites on the back on days 0 and 6 of this 17 day study. Compound 1.028 was dosed daily in a sub-cutaneous manner from day 0 till day 17 at a dose of 25 mg/kg and a volume of 1 mL/kg in the following vehicle (20% N,N-dimethylacetamide, 75% corn oil, 5% Tween-80). Caliper measurements of the ankle joint diameter were taken, and reducing joint swelling was taken as a measure of efficacy.

| Structure (SMILES) | synovium inflammation score ([1]; dose 1=50 μM intra-articular with LPS 10 ng) | synovium inflammation score ([1]; dose 2=100 μM intra-articular with LPS 10 ng) | Inhibition of the inflammatory response ([1]; rabbit LPS intra-articular model) | Inhibition of arthritis induced ankle swelling [2] | change in joint diameter day9-day17 ([2]; vehicle 15.7% +/− 2.0%, normal 0% +/− 0.3%) |
| --- | --- | --- | --- | --- | --- |
| Cc1c(Cl)c(C(F)(F)F)nn1CC(=O)N1CCN(c2ccc(F)cc2)CC1 [CCX-105] | 2 | 1 | significantly and specifically inhibit the inflammatory response | – | – |
| COc1cc(N2CCN(C(=O)Cn3nc(C(F)(F)F)c(Cl)c3C)CC2)c(Cl)cc1Cl [Compound 1.028] | – | – | – | significantly and specifically inhibit the arthritis induced ankle swelling | 9.1% +/− 1.8% |
